We go through ten molecules from ChEMBL document CHEMBL1201862, “PubChem BioAssay data set” (2004).

Common to all, as to test: NCI-60 cell line screen, 48 h
The subject of experiment [1] is K562.
Experiment [2] deals with MDA-N.
Experiment [3] relates to Malme-3M.
For experiment [4], the system named is TK-10.
In experiment [5] the test system is SN12C.
In experiment [6] the test system is HT-29.
For experiment [7], the system named is RPMI-8226.
Experiment [8] deals with MOLT-4.
In experiment [9] the test system is OVCAR-8.
Experiment [10] concerns OVCAR-3.
Experiment [11] relates to HCT-15.
Experiment [12] relates to NCI/ADR-RES.
The test system of experiment [13] is CCRF-CEM.
The subject of experiment [14] is IGROV-1.
For experiment [15], the system named is U-251.
Experiment [16] concerns NCI-H226.
The test system of experiment [17] is HCC 2998.
Experiment [18] relates to LOX IMVI.
The subject of experiment [19] is SR.
Experiment [20] has as its system SNB-19.

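Test compounds were applied to cells in 96-well plates for 48 hours at 5 doses. GI50 is the concentration that inhibits growth by half.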 Activity calls are given as the source filed them. No stated cut-off is given here; in the data, active = GI50 up to about 1.1 µM and inactive = higher.

Regarding `COc1cc(OC2OC(COC(=O)c3cc(O)c(O)c(O)c3)C(O)C(O)C2O)ccc1O` (centres undefined), the GI50 in [1] was 32.7 µM (inactive); in experiment [2] it was 30.5 µM (inactive); in experiment [3], > 100 µM (inactive); in experiment [4], 76.7 µM (inactive); in experiment [5], 77.8 µM (inactive); in [6], 70.5 µM (inactive). Further, the GI50 is > 100 µM (inactive) in experiment [7]; 53.1 µM (inactive) in experiment [8]; 89.9 µM (inactive) in [9]; 84.1 µM (inactive) in experiment [10]; greater than 100 µM in experiment [11]; > 100 µM (inactive) in experiment [12]. The GI50 was 42.2 µM (inactive) in experiment [13]; > 100 µM (inactive) in experiment [14]; > 100 µM (inactive) in experiment [15]; > 100 µM (inactive) in experiment [16]; > 100 µM (inactive) in [17]; 29.5 µM (inactive) in [18]. In addition, the GI50 in [19] and in experiment [20] was > 100 µM (inactive) each time.

As to `COC(=O)c1ccc2c(c1)C(NC(C)=O)CCc1cc(OC)c(OC)c(OC)c1-2` (centres undefined), the GI50 in experiment [1] was 0.0128 µM (active); in experiment [2] it was 0.0113 µM (active); in experiment [3], 0.015 µM (active); in [4], 16.9 µM (inactive); in [5] it was 0.0223 µM (active); in experiment [6] it was 0.0125 µM (active). Moreover, the GI50 was 0.0151 µM (active) in [7]; 0.0151 µM (active) in experiment [8]; 0.0154 µM (active) in experiment [9]; < 0.0116 µM (active) in [10]; 0.0366 µM in experiment [11]; 0.0416 µM (active) in experiment [12]. Moreover, the GI50 is 0.0133 µM (active) in [13]; 0.0163 µM (active) in experiment [14]; < 0.0117 µM (active) in experiment [15]; 0.0424 µM (active) in experiment [16]; 0.0327 µM (active) in experiment [17]; 0.0149 µM (active) in experiment [18]. The GI50 was 0.0123 µM (active) in [19] and 0.0183 µM (active) in experiment [20].

With `OC1C2[C@@H](O)CCCN2C[C@@H](O)[C@H]1O` (some centres undefined), the GI50 in experiment [1], in [2], in [3], in experiment [4], in experiment [5] and in [6] was > 100 µM (inactive) each time. The GI50 in experiment [7] was > 100 µM (inactive); in [8], > 100 µM (inactive); in [9] it was > 100 µM (inactive); in experiment [10] it was > 100 µM (inactive); in experiment [11], greater than 100 µM; in [12] it was > 100 µM (inactive). The GI50 in experiment [13], in experiment [14], in experiment [15], in experiment [16], in [17] and in experiment [18] was > 100 µM (inactive) each time. The GI50 in experiment [19] and in experiment [20] was > 100 µM (inactive) in each case.

Regarding `Ic1cccc(/C=C/CN2CCN(CCOC(c3ccccc3)c3ccccc3)CC2)c1`, the GI50 in experiment [1] is 4.62 µM (inactive); in experiment [2], 17.9 µM (inactive); in [3], 18.9 µM (inactive); in [4], 16.1 µM (inactive); in experiment [5] it was 13.9 µM (inactive); in experiment [6], 6.47 µM (inactive). Further, the GI50 is 3.01 µM (inactive) in experiment [7]; 5.32 µM (inactive) in experiment [8]; 16 µM (inactive) in experiment [9]; 16.7 µM (inactive) in experiment [10]; 14.2 µM in [11]; 16 µM (inactive) in experiment [12]. Besides, the GI50 was 6.5 µM (inactive) in [13]; 19.7 µM (inactive) in experiment [14]; 13.6 µM (inactive) in experiment [15]; 17.1 µM (inactive) in experiment [16]; 6.97 µM (inactive) in experiment [17]; 13.2 µM (inactive) in experiment [18]. In addition, the GI50 in experiment [19] was 4.16 µM (inactive); in experiment [20] it was 16.3 µM (inactive).

Regarding `COC(=O)NC1C(C)OC(OC2C/C=C(/C)C3C=CC4C(OC5CC(OC6CCC(OC7CC(O)C(OC8CCC(O)C(C)O8)C(C)O7)C(C)O6)C(OC(C)=O)C(C)O5)C(C)CC(C)C4C3(C)/C(O)=C3/C(=O)OC4(CC(C=O)=CC(O)C4/C=C\2C)C3=O)CC1(C)[N+](=O)[O-]` (centres undefined), the GI50 was 0.885 µM (active) in experiment [1]; 0.661 µM (active) in experiment [2]; 0.421 µM (active) in experiment [3]; 1.61 µM (inactive) in experiment [4]; 0.964 µM (active) in experiment [5]; 1.1 µM (active) in [6]. In addition, the GI50 in experiment [7] was 0.957 µM (active); in experiment [8], 0.474 µM (active); in [9], 1 µM (active); in experiment [10], 0.971 µM (active); in [11], 0.832 µM; in experiment [12] it was 6.17 µM (inactive). Besides, the GI50 in experiment [13] was 0.178 µM (active); in experiment [14], 3.44 µM (inactive); in [15], 0.342 µM (active); in experiment [16], 1.06 µM (active); in experiment [17], 0.951 µM (active); in [18] it was 0.397 µM (active). The GI50 was 0.857 µM (active) in experiment [19] and 0.69 µM (active) in experiment [20].

On to `Nn1c(Cc2ccccc2)n[nH]c1=O`, for which the GI50 was > 100 µM (inactive) in [1]; > 100 µM (inactive) in [2]; 37.2 µM (inactive) in experiment [3]; > 100 µM (inactive) in experiment [4]; > 100 µM (inactive) in experiment [5]; > 100 µM (inactive) in [6]. Also, the GI50 in [7] is > 100 µM (inactive); in experiment [8], > 100 µM (inactive); in experiment [9] it was > 100 µM (inactive); in [10], > 100 µM (inactive); in experiment [11], greater than 100 µM; in experiment [12], > 100 µM (inactive). Also, the GI50 in experiment [13], in experiment [14], in [15], in [16], in experiment [17] and in experiment [18] was > 100 µM (inactive) in each case. Also, the GI50 in experiment [19] and in experiment [20] was > 100 µM (inactive) in each case.

`COc1ccc(C(C)c2cc3c(cc2OC)OCO3)cc1` (centres undefined): the GI50 was 0.0389 µM (active) in experiment [1]; 0.019 µM (active) in experiment [2]; 0.0951 µM (active) in experiment [3]; 8.95 µM (inactive) in experiment [4]; 0.378 µM (active) in experiment [5]; 0.0798 µM (active) in experiment [6]. Besides, the GI50 was 0.122 µM (active) in experiment [7]; 0.264 µM (active) in [8]; 0.269 µM (active) in [9]; 0.107 µM (active) in [10]; 0.0723 µM in experiment [11]; 0.0268 µM (active) in [12]. For the same molecule, the GI50 was 0.131 µM (active) in [13]; 0.104 µM (active) in [14]; 0.229 µM (active) in experiment [15]; 0.416 µM (active) in [16]; 0.193 µM (active) in experiment [17]; 0.205 µM (active) in experiment [18]. Also, the GI50 in experiment [19] was 0.881 µM (active); in experiment [20], 2.61 µM (inactive).

`O=C(Nc1sccc1S(=O)(=O)c1ccc(Cl)cc1)c1ccc(Cl)cc1`: the GI50 is > 100 µM (inactive) in [1]; > 100 µM (inactive) in [2]; 50.6 µM (inactive) in [3]; 50.8 µM (inactive) in [4]; > 100 µM (inactive) in [5]; > 100 µM (inactive) in experiment [6]. The GI50 in experiment [7] is > 100 µM (inactive); in [8] it was > 100 µM (inactive); in experiment [9], 63 µM (inactive); in experiment [10] it was > 100 µM (inactive); in experiment [11], greater than 100 µM; in experiment [12] it was > 100 µM (inactive). Besides, the GI50 in [13] was > 100 µM (inactive); in experiment [14], > 100 µM (inactive); in experiment [15], 31 µM (inactive); in [16] it was > 100 µM (inactive); in [17], > 100 µM (inactive); in [18], > 100 µM (inactive). Further, the GI50 was > 100 µM (inactive) in [19] and 44.2 µM (inactive) in experiment [20].

With `CC(C)=CCC[C@]1(C)C=Cc2c(O)c3c(c(CC=C(C)C)c2O1)O[C@]12C(=C[C@@H]4CC1C(C)(C)O[C@@]2(C/C=C(/C)C(=O)O)C4=O)C3=O`, the GI50 in [1] is 0.676 µM (active); in experiment [2], 0.47 µM (active); in [3], 1.19 µM (inactive); in experiment [4], 0.861 µM (active); in [5] it was 0.719 µM (active); in [6] it was 0.461 µM (active). Also, the GI50 in experiment [7] is 0.368 µM (active); in experiment [8] it was 0.305 µM (active); in experiment [9], 0.643 µM (active); in experiment [10], 1.38 µM (inactive); in experiment [11], 0.813 µM; in experiment [12], 1.92 µM (inactive). For the same molecule, the GI50 was 0.273 µM (active) in experiment [13]; 1.43 µM (inactive) in [14]; 0.676 µM (active) in experiment [15]; 0.774 µM (active) in experiment [16]; 1.34 µM (inactive) in [17]; 0.442 µM (active) in experiment [18]. The GI50 in experiment [19] was 0.317 µM (active); in experiment [20], 2.12 µM (inactive).

Regarding `CC1=C2O[C@]3(O)C=C2C(=C(O)C1=O)[C@@H]1O[C@H](CC[C@H](C)/C=C(\C)C[C@@H](C)C[C@@H]3C)[C@H](C)[C@H](O)[C@H]1C` [KENDOMYCIN], the GI50 in experiment [1] is 0.166 µM (active); in experiment [2], 0.166 µM (active); in [3], 0.194 µM (active); in [4], 0.155 µM (active); in experiment [5] it was 0.811 µM (active); in experiment [6], 0.181 µM (active). Moreover, the GI50 was 0.118 µM (active) in experiment [7]; 0.097 µM (active) in experiment [8]; 0.15 µM (active) in experiment [10]; 0.124 µM in [11]; 0.311 µM (active) in experiment [12]; 0.0473 µM (active) in [13]. The GI50 in experiment [14] is 0.163 µM (active); in experiment [15], 0.326 µM (active); in [16], 1.12 µM (active); in experiment [17], 0.167 µM (active); in [18] it was 0.24 µM (active); in experiment [19] it was 0.135 µM (active). Also, the GI50 in experiment [20] was 0.977 µM (active).
